Results taken from US11332716B2, “Methods and compositions for producing pancreatic beta cells” (The Regents of the University of California, priority 2015, dated 2022).

Key:
[1] = test system: definitive endoderm-like cells (DELCs); assay: Induction of pancreatic progenitor-like cells from DELCs (Pdx1/Nkx6.1 staining); assay type: cell-based, mouse; conditions: 400-compound collection; confirmed in larger-well cultures
Procedure: At the end of treatment, lineage specific markers were analyzed by immunostaining and/or real-time.
Primary antibodies used were Sox17 (R&D), Foxa2 (Millipore), Pdx1 (R&D), Hnf6 (Santa Cruz), Pax6 (Covance), Sox9 (Santa Cruz), Nkx6.1 (Developmental Studies Hybridoma Bank), Insulin (Dako), Glucagon (Sigma), Somatostatin (Abeam), Amylase (Abeam), and CK19 (Abcam). Nuclei were visualized by DAPI (Sigma-Aldrich) staining Images were captured using a Nikon Eclipse TE2000-U microscope.
An available drug collection of 400 compounds in the 48well format was screened to identify small molecules that induce high percentages of Pdx 1^+/NKx6.1^+ cells in DELC populations. Med-III medium (DMEM supplemented with 1 kB27, 2 mM GLUTAMAX™) was used as the basal condition and double staining of Pdx1 and Nkx 6.1 at 4 days post-induction was used as the readout.

γ-secretase = conditions: read-out: IC50 for total β-amyloid; cited from earlier work
presenilase = conditions: higher concentrations (20-400 μM); cited from earlier work
[2] = test system: pancreatic endodermal progenitor cells (cPE cells); assay: Maturation of cPE cells into C-peptide positive cells, chemical screen; conditions: added individually to basal pancreatic differentiation media
[3] = test system: histone deacetylases (HDACs); conditions: isoform not stated; read-out: IC50 (histone deacetylase); cited from earlier work
[4] = test system: MKN45, U87MG, MDA-MB-231, COLO205, and A549 tumor cells; conditions: 20 mg/kg-60 mg/kg; c-Met-driven or non-c-Met-driven xenografts; cited from earlier work
p38 MAPK = p38 MAPK (Homo sapiens, UniProt Q16539); conditions: read-out: IC50 for p38 MAPK; cited from earlier work
[5] = test system: Src-dependent cell proliferation; conditions: cited from earlier work
[6] = test system: Human foreskin fibroblasts (CRL-2097); assay: Conversion of human fibroblasts into definitive endodermal progenitor cells (FOXA2 positive colonies); conditions: Parnate, RG108 condition
[7] = test system: Dox-inducible secondary mouse embryonic fibroblasts (MEFs); assay: Direct reprogramming of fibroblasts into definitive endoderm-like cells (Sox17/Foxa2); assay type: cell-based; conditions: treatment in first two steps
Procedure: To extend and test the iPSC-factor-based lineage-specific reprogramming paradigm to endoderm, a two-step process was first devised to directly reprogram secondary MEF cells into definitive endoderm-like cells (DELCs). The first step (step I) involved culturing secondary MEF cells in media (Med-I) that is supplemented with 4 μg/ml Dox to initiate epigenetic activation. The second step (step II) was culturing the epigenetically activated cells in Med-II supplemented with 50 ng/ml Activin A and 1 mM LiCl (hereafter referred to as Activin/Li). […] Hereafter these Sox17/Foxa2 double-positive cells are referred to as definitive endoderm-like cells (DELCs).
To test this hypothesis, conditions were evaluated in which definitive endoderm induction factors (Activin/Li) were added to fibroblasts either after (Approach-I) or during (Approach II) iPSC factor expression, using Sox17 and Foxa2 expression as a measure of DELC induction (FIG. 1A).

[8] = test system: Dox-inducible secondary mouse embryonic fibroblasts (MEFs); assay: Pdx1+/Nkx6.1+ colony number on day 16 after small molecules in first/second step; conditions: 1 μM Bix-01294 D0 to D6; 280 μM pVc D0 to D12; readout day 16
[9] = test system: pancreatic endodermal progenitor (cPE) cells; assay: Protocol 2 maturation of cPE cells into cPB cells (INSULIN mRNA, C-peptide cells)
Axl = target: T1, Axl (Homo sapiens, UniProt P30530); conditions: 1 μM; cited from earlier work
T1 sequence (P30530 26-894): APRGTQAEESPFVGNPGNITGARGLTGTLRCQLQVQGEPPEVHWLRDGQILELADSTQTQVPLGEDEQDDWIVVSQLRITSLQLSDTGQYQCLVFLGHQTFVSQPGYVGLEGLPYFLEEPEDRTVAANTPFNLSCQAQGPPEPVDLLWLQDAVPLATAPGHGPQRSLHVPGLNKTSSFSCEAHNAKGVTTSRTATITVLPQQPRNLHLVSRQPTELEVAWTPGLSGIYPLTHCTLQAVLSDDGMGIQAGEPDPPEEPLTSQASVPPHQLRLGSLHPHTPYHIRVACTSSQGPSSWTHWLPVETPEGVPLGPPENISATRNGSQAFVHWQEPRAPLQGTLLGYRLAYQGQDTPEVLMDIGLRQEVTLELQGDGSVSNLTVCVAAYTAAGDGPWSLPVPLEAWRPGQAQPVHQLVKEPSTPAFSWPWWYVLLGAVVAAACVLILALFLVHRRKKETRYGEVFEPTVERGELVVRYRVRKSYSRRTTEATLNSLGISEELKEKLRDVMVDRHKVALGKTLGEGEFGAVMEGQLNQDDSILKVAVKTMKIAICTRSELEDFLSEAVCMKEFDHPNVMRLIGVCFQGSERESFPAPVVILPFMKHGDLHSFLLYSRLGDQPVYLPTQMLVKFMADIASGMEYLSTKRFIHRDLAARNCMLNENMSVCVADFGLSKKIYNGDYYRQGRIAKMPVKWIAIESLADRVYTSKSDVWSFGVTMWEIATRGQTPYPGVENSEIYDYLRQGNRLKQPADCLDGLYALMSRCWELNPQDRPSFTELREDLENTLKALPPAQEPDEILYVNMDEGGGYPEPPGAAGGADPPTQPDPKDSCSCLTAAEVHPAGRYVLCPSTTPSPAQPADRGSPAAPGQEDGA

[10] = test system: HDAC activity in HeLa extracts; conditions: read-out: IC50 for inhibition of HDAC activity; cited from earlier work
[11] = test system: pancreatic progenitor-like cells (PPLCs); assay: Maturation of PPLCs into pancreatic-like cells (insulin/Pdx1, day 25); conditions: 5 μM SB203580 or 280 μM pVc used individually
[12] = test system: MEL1 INS GFP/W hESC spheres; assay: hESC suspension differentiation, flow cytometry of PDX1 and NKX6.1; assay type: cell-based, human; conditions: day 9.5
Source text: Treatments consisted of combinations of Cyclopamine (C), Noggin (N), and retinoic acid (R) during days 6-8, followed by subdivision of each condition into three treatment groups during day 9-9.5. Group 1) continuation of day 6-8 treatment; Group 2) treatment with EGF and KGF (EK); Group 3) treatment with EGF, KGF, and Noggin (EKN). […] Data shown are representatives of results obtained in two independent experiments. […] FIG. 17B: Quantification of PDX1 (orange gate) and NKX6.1 (blue gate) protein expressing cells in individual conditions after 9.5 days of differentiation.
Suspension-based differentiations were carried out as follows. Briefly, confluent cultures were dissociated into single cell suspension by incubation with TrypLE (Gibco). […] To induce definitive endoderm differentiation, aggregates were collected 24 hours later in a 50 ml falcon tube, allowed to settle by gravity, washed once with PBS and re-suspended in d1 media (RPMI (Gibco) containing 0.2% FBS, 1:5000 ITS (Gibco), 100 ng/ml Activin A, and 50 ng/ml WNT3a (R&D systems)). Clusters from 3 wells were combined into 2 wells at this point and distributed into fresh low-attachment plates in 5.5 ml d1 media. Media thereafter was changed daily, by removing either 4.5 ml media (at the end of d1) or 5.5 ml media the following days and adding back 5.5 ml fresh media until day 9. After day 9, only 5 ml of media was removed and added daily.
Briefly, spheres were collected and allowed to settle by gravity. Clusters were washed once in PBS and dissociated by gentle pipetting after 12-15 minutes incubation in Accumax (Innovative Cell Technologies). For sorting, cell suspensions were filtered and re-suspended in FACS buffer consisting of phosphate-buffered saline (PBS) (UCSF cell culture facility) containing 2 mM EDTA (Ambion) and 1% BSA (Sigma). Dead cells were excluded by DAPI (Sigma) staining Cell sorting was performed on a FACS Aria II (BD Bioscience). […]

SAPK2/p38 = SAPK2/p38 (Homo sapiens, UniProt Q16539); conditions: cited from earlier work
Chain of SAPK2/p38 (Q16539 whole entry): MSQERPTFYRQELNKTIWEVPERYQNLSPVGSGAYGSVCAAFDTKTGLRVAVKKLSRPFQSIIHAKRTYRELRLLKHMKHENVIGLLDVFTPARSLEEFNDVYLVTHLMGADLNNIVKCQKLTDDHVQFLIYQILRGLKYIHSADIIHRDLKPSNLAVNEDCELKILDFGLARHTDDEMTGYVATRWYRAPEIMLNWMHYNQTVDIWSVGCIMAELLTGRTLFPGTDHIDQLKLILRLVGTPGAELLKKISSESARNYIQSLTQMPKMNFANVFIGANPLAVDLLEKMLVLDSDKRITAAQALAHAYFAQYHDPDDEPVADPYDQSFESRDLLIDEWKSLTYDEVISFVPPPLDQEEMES

Chain of p38 MAPK (Q16539 whole entry): as above

Molecule: Cc1cccc(-c2nn(C(=S)Nc3ccccc3)cc2-c2ccnc3ccccc23)n1 [A83-01, 3-(6-Methyl-2-pyridinyl)-N-phenyl-4-(4-quinolinyl)-1H-pyrazole-1-carbothioamide]
- screen result: increase of Pdx1 and/or Nkx6.1 expression [1]: Confirmed hits

Molecule: C[C@H](NC(=O)Cc1cc(F)cc(F)c1)C(=O)N[C@H]1N=C(c2ccccc2)c2ccccc2N(C)C1=O [Compound E]
- IC50 (γ-secretase): 0.0003 µM
- effect on presenilase activity (presenilase): only weakly affects
- percentage of C-peptide positive cells, individual supplementation [2]: effective in increasing

Molecule: CC1NC(=O)C(C)NC(=O)C2CCCN2C(=O)C(CCCCCCC(=O)C2CO2)NC1=O [HC Toxin, (6R,9S,14aR)-3,6R-dimethyl-9S-(7-((S)-oxiran-2-yl)-7-oxoheptyl)decahydropyrrolo[1,2-a][1,4,7,10]tetraazacyclododecine-1,4,7, 10-tetranone]
- IC50 [3]: 0.03 µM

Molecule: Cn1cnc(-c2cc3nccc(Oc4ccc(NC(=S)NC(=O)Cc5ccccc5)cc4F)c3s2)c1 [MGCD-265]
- tumor growth and c-Met signaling [4]: inhibits tumor growth and c-Met signaling

Molecule: Cc1cccc(-c2n[nH]cc2-c2ccc3ncccc3n2)n1 [ALK5 inhibitor II, 2-(3-(6-methylpyridine-2-yl)-1H-pyrazol-4-yl)-1,5-naphthyridine]
- IC50 (p38 MAPK): > 16 µM

Molecule: CC1(C)NC(=O)C(CCCCCC(=O)[C@H]2CO2)NC(=O)C2CCCN2C(=O)[C@@H](Cc2ccccc2)NC1=O (stereo partly drawn) [Chlamydocin, (3R)-3-benzyl-6,6-dimethyl-9-[6-[(2R)-oxiran-2-yl]-6-oxohexyl]-1,4,7,10-tetrazabicyclo[10.3.0]pentadecane-2,5,8,11-tetrone]
- IC50 [3]: ~0.00015 µM

Molecule: COc1cc(Nc2c(C#N)cnc3cc(OCCCN4CCN(C)CC4)c(OC)cc23)c(Cl)cc1Cl [Bosutinib]
- IC50 [5]: 0.1 µM

Molecule: CCNC(=O)[C@H]1O[C@@H](n2cnc3c(N)ncnc32)C(O)C1O (stereo partly drawn) [NECA, 5′-N-ethylcarboxamidoadenosine]
- increase of conversion rate over the basal protocol ([6]; NECA added to NaB): 5 fold
- further increase of conversion rate over the improved condition ([6]; added to NaB): 2 fold

Molecule: Cc1c(C(=O)Nc2ccc(N3C[C@@H](C)O[C@@H](C)C3)nc2)cccc1-c1ccc(OC(F)(F)F)cc1 [LDE225]
- screen result: increase of Pdx1 and/or Nkx6.1 expression [1]: Confirmed hits

Molecule: COc1cc2nc(N3CCCN(C)CC3)nc(NC3CCN(Cc4ccccc4)CC3)c2cc1OC [Bix-01294]
- numbers of Sox17 and Foxa2 single positive and double positive cells [7]: no significant influence
- number of Pdx1+/Nkx6.1+ colonies [8]: about 3 fold

Molecule: Nc1ccccc1NC(=O)c1ccc(CNC(=O)OCc2cccnc2)cc1 [MS-27-275]
- IC50 [3]: 0.1 to 1 µM

Molecule: CC(/C=C/C(=O)NO)=C\[C@@H](C)C(=O)c1ccc(N(C)C)cc1 [Trichostatin A, (R,2E,4E)-6-(4-(dimethylamino)benzoyl)-N-hydroxy-4-methylhepta-2,4-dienamide]
- IC50 [3]: ~0.0018 µM

Molecule: COC(=O)C1=C(C)NC(C)=C([N+](=O)[O-])C1c1ccccc1C(F)(F)F (stereo not drawn) [BayK-8644, 3-pyridinecarboxylic acid, 1,4-dihydro-2,6-dimethyl-5-nitro-4-(2-(trifluoromethyl)phenyl), methyl ester]
- percentage of C-peptide positive cells, individual supplementation [2]: effective in increasing
- number of C-peptide positive cells co-expressing PDX1 and NKX6.1 [9]: increased
- expression of the INSULIN gene (mRNA) ([9]; day 21, compared to DMSO controls): promoted expression

Molecule: S=C(NCc1ccc2c(c1)OCO2)N1CCN(c2ncnc3c2oc2ccccc23)CC1 [Amuvatinib]
- tyrosine phosphorylation of AXL (Axl): inhibits tyrosine phosphorylation of AXL

Molecule: Nc1ccccc1NC(=O)CCCCCCC(=O)Nc1ccccc1 [BML-210, N1-(2-aminophenyl)-N8-phenyl-octanediamide]
- IC50 [10]: ~80 µM

Molecule: 2-Phospho-L-ascorbic acid trisodium salt [pVc]
- numbers of Sox17 and Foxa2 single positive and double positive cells [7]: no significant influence
- screen result: increase of Pdx1 and/or Nkx6.1 expression [1]: Confirmed hits
- number of insulin+/Pdx1+ double-positive cells [11]: significantly increased
- number of Pdx1+/Nkx6.1+ colonies [8]: ~4 fold

Molecule: Nc1ccccc1NC(=O)c1ccc(CNc2nccc(-c3cccnc3)n2)cc1 [MGCD0103, N-(2-aminophenyl)-4-[[(4-pyridin-3-ylpyrimidin-2-yl)amino]methyl]benzamide]
- IC50 [3]: ~0.1 µM

Molecule: CC1=C2C[C@H]3[C@@H](CC=C4C[C@@H](O)CC[C@@]43C)[C@@H]2CC[C@]12O[C@@H]1C[C@H](C)CN[C@H]1[C@H]2C [Cyclopamine]
- generation of PDX1+ cells over base media alone ([12]; alone, conditions 2 and 3): did not result in enhanced generation

Molecule: C[S+]([O-])c1ccc(-c2nc(-c3ccc(F)cc3)c(-c3ccncc3)[nH]2)cc1 (stereo not drawn) [SB203580, 4-(4-fluorophenyl)-2-(4-methylsulfinylphenyl)-5-(4-pyridyl)-1H-imidazole]
- number of insulin+/Pdx1+ double-positive cells [11]: significantly increased

Molecule: CC1=C(/C=C/C(C)=C/C=C/C(C)=C/C(=O)O)C(C)(C)CCC1 [retinoic acid]
- PDX1 positive progenitors ([12]; days 6-8, alone or in combination (conditions 4, 5, 6), group 1): > 88%

Molecule: NC(=O)c1ccc(-c2nc(-c3ccc4c(c3)OCCO4)c(-c3ccccn3)[nH]2)cc1 [D 4476, 4-[4-(2,3-Dihydro-1,4-benzodioxin-6-yl)-5-(2-pyridinyl)-IH-imidazol-2-yl]benzamide]
- selectivity over SAPK2/p38 (SAPK2/p38): greater than 20 fold
